Measured values from patent US20240158392A1 (Janssen Biotech, Inc., priority 2021, published 2024).
pIC50: −log10 of the molar value.

molecular target: SIK2 (Homo sapiens, UniProt Q9H0K1); test: SIK2 Enzymatic Assay High Version 2 (High ATP); assay type: biochemical; conditions: not given
Method: All steps were performed at room temperature. Compounds were pre-plated onto an assay plate using an Echo acoustic dispenser (Labcyte, E550 or E555) at 80 nL per well. Enzyme prepared in assay buffer at 6 nM (2× final concentration) was added at 4 μL per well using the Multidrop Combi (Thermo Fisher—used for all additions in this assay) to the assay plate, spun for 1 min at 1000 rpm (Allegra 6KR Beckman Coulter centrifuge), and incubated with compound for 30 minutes. Assay buffer containing 6 mM ATP and 400 μM HDAC5tide (2× of final concentration for each substrate) was added at 4 μL per well to the assay plate and then spun as above and incubated for 2 hours. […] ADP-Glo Max Reagent (prepared and aliquoted as per manufacturer instructions) was then added at 8 μL per well, spun and incubated for 2 hours. ADP-Glo Max Detection (prepared and aliquoted as per manufacturer instructions) was added at 8 μL per well to the assay plate, which was spun and incubated for 1 hour. The plate is then read on the Pherastar (BMG Labtech) using a luminescence read. Gain is set between 2200-2500.

SIK2, sequence (Q9H0K1 whole entry, species assumed): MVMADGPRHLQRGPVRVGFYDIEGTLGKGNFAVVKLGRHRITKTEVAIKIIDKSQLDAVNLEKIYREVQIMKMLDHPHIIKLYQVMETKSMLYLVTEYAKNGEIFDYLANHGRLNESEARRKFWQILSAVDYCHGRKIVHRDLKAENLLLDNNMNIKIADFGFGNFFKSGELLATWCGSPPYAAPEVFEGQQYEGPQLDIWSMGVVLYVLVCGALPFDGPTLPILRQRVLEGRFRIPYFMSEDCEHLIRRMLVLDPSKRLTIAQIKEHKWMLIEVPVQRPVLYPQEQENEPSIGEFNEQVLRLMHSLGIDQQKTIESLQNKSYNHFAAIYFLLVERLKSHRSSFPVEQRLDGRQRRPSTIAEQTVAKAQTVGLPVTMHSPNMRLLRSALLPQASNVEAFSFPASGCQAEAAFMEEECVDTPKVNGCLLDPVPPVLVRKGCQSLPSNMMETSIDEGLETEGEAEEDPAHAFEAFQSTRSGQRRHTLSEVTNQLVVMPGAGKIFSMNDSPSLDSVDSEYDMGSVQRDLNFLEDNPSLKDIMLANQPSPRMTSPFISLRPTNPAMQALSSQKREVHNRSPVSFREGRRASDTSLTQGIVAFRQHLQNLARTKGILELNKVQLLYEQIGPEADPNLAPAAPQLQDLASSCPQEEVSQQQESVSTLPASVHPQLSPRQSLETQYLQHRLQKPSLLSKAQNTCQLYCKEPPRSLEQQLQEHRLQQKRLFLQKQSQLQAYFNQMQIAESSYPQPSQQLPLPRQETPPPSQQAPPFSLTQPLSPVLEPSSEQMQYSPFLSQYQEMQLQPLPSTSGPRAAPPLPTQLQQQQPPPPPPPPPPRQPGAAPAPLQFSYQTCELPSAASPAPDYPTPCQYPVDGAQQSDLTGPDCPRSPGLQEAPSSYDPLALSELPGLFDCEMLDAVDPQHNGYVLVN

Row | Structure (SMILES) | pIC50
1 | Cc1cc(-c2ccn3nc(Nc4cc(C)nc(C)n4)cc3c2)c(O[C@H]2C[C@H]3COC[C@@H](C2)N3)cn1 [Example 382, N-(2,6-dimethylpyrimidin-4-yl)-5-[2-methyl-5-[[(1S,5R,7s)-3-oxa-9-azabicyclo[3.3.1]nonan-7-yl]oxy]-4-pyridyl]pyrazolo[1,5-a]pyridin-2-amine] | > 9.07
2 | Cc1cc(-c2ccn3nc(Nc4cn(C)nn4)cc3c2)c(O[C@H]2C[C@H]3COC[C@@H](C2)N3C)cn1 [Example 414, 5-[2-methyl-5-[[(1R,5S,7s)-9-methyl-3-oxa-9-azabicyclo[3.3.1]nonan-7-yl]oxy]-4-pyridyl]-N-(1-methyltriazol-4-yl)pyrazolo[1,5-a]pyridin-2-amine] | 7.82
3 | Cc1cc(-c2ccn3nc(Nc4ccc(F)cn4)cc3c2)c(O[C@H]2C[C@H]3COC[C@@H](C2)N3)cn1 [Example 127, 5-(5-(((1R,5S,7s)-3-oxa-9-azabicyclo[3.3.1]nonan-7-yl)oxy)-2-methylpyridin-4-yl)-N-(5-fluoropyridin-2-yl)pyrazolo[1,5-a]pyridin-2-amine] | > 9.07
4 | Cc1cc(-c2ccn3nc(Nc4ccnc(C)n4)cc3c2)c(O[C@H]2C[C@H]3COC[C@@H](C2)N3C)cn1 [Example 410, 5-[2-methyl-5-[[(1R,5S,7s)-9-methyl-3-oxa-9-azabicyclo[3.3.1]nonan-7-yl]oxy]-4-pyridyl]-N-(2-methylpyrimidin-4-yl)pyrazolo[1,5-a]pyridin-2-amine] | > 9.07
5 | CNC(=O)c1ccc(Nc2cc3cc(-c4cc(C)ncc4O[C@H]4C[C@H]5COC[C@@H](C4)N5C(C)C)ccn3n2)nc1 [Example 531, 6-[[5-[5-[[(1S,5R)-9-isopropyl-3-oxa-9-azabicyclo[3.3.1]nonan-7-yl]oxy]-2-methyl-4-pyridyl]pyrazolo[1,5-a]pyridin-2-yl]amino]-N-methyl-pyridine-3-carboxamide] | 8.84
6 | Cc1cc(-c2ccn3nc(Nc4ccc(C(=O)NC5CCOCC5)cn4)cc3c2)c(O[C@H]2C[C@H]3COC[C@@H](C2)N3)cn1 [Example 388, 6-[[5-[2-methyl-5-[[(1S,5R,7s)-3-oxa-9-azabicyclo[3.3.1]nonan-7-yl]oxy]-4-pyridyl]pyrazolo[1,5-a]pyridin-2-yl]amino]-N-tetrahydropyran-4-yl-pyridine-3-carboxamide] | 8.99

same assay, conditions: enzyme 6 nM, 6 mM ATP and 400 μM HDAC5tide (each 2× final concentration); 30 minutes pre-incubation, 2 hours; ADP-Glo Max luminescence; read-out: SIK2 high ATP IC50 (μM) (Test Example 2)

Row | Structure (SMILES) | IC50 [µM]
7 | Cc1cc(-c2ccn3nc(Nc4cc(C)c(=O)n(C5CC5)n4)cc3c2)c(OC[C@@H]2COCCO2)cn1 [Example 561, 2-cyclopropyl-6-[[5-[5-[[(2S)-1,4-dioxan-2-yl]methoxy]-2-methyl-4-pyridyl]pyrazolo[1,5-a]pyridin-2-yl]amino]-4-methyl-pyridazin-3-one] | 0.0619
8 | Cc1cc(-c2ccn3nc(NC(=O)C4CC4)cc3c2)c(O[C@@H]2CCC[C@H](O)C2)cn1 (single isomer, unassigned) [Example 602, (1*R, 3*S)—N-[5-[5-(3-hydroxycyclohexoxy)-2-methyl-4-pyridyl]pyrazolo[1,5-a]pyridin-2-yl]cyclopropanecarboxamide] | 0.113
9 | Cc1cc(-c2ccn3nc(Nc4cc(C)nc(C)n4)cc3c2)c(O[C@H]2CCS(=O)(=O)NC2)cn1 (single isomer, unassigned) [Example 610, (*S)—N-(2,6-dimethylpyrimidin-4-yl)-5-[5-(1,1-dioxothiazinan-4-yl)oxy-2-methyl-4-pyridyl]pyrazolo[1,5-a]pyridin-2-amine] | 0.0829
10 | Cc1cc(-c2ccn3nc(Nc4cc(C(=O)N(C)C)cc(C)n4)cc3c2)c(OCC(C)(C)O)cn1 [Example 633, 2-[[5-[5-(2-hydroxy-2-methyl-propoxy)-2-methyl-4-pyridyl]pyrazolo[1,5-a]pyridin-2-yl]amino]-N,N,6-trimethyl-pyridine-4-carboxamide] | 0.105
11 | Cc1cc(-c2ccn3nc(NC(=O)C4CC4)cc3c2)c(OC[C@@H](N)C(F)(F)F)cn1 [Example 570, N-[5-[5-[(2R)-2-amino-3,3,3-trifluoro-propoxy]-2-methyl-4-pyridyl]pyrazolo[1,5-a]pyridin-2-yl]cyclopropanecarboxamide] | 0.0943
12 | Cc1cc(Nc2cc3cc(-c4cc(OCC(F)(F)F)ncc4OCC(C)(C)O)ccn3n2)nc(C)n1 [Example 661, 1-[[4-[2-[(2,6-dimethylpyrimidin-4-yl)amino]pyrazolo[1,5-a]pyridin-5-yl]-6-(2,2,2-trifluoroethoxy)-3-pyridyl]oxy]-2-methyl-propan-2-ol] | 0.0749
13 | Cc1cc(-c2ccn3nc(Nc4cc(C)nc(C)n4)cc3c2)c(OC[C@H]2C[C@H](O)CO2)cn1 [Example 609, (3S,5R)-5-[[4-[2-[(2,6-dimethylpyrimidin-4-yl)amino]pyrazolo[1,5-a]pyridin-5-yl]-6-methyl-3-pyridyl]oxymethyl]tetrahydrofuran-3-ol] | 0.0797
14 | Cc1cc(-c2ccn3nc(Nc4cc(C)nc(C)n4)cc3c2)c(OC[C@@H]2C[C@H](O)CO2)cn1 [Example 606, (3S,5S)-5-[[4-[2-[(2,6-dimethylpyrimidin-4-yl)amino]pyrazolo[1,5-a]pyridin-5-yl]-6-methyl-3-pyridyl]oxymethyl]tetrahydrofuran-3-ol] | 0.1

Further lines, results first:

Row | IC50 [µM] | Structure (SMILES)
15 | 0.0241 | Cc1cc(-c2ccn3nc(Nc4cc(C)nc(C(F)(F)F)n4)cc3c2)c(OCC(C)(C)O)cn1 [Example 537, 2-methyl-1-[[6-methyl-4-[2-[[6-methyl-2-(trifluoromethyl)pyrimidin-4-yl]amino]pyrazolo[1,5-a]pyridin-5-yl]-3-pyridyl]oxy]propan-2-ol]
16 | 0.0188 | Cc1cc(-c2ccn3nc(Nc4cc(C)c(=O)n(CCOC(F)F)n4)cc3c2)c(OCC(C)(C)O)cn1 [Example 284, 2-[2-(difluoromethoxy)ethyl]-6-[[5-[5-(2-hydroxy-2-methyl-propoxy)-2-methyl-4-pyridyl]pyrazolo[1,5-a]pyridin-2-yl]amino]-4-methyl-pyridazin-3-one]
17 | 0.0057 | Cc1cc(-c2ccn3nc(Nc4cc(C)c(=O)n(C)n4)cc3c2)c(OC[C@@](C)(N)C(F)(F)F)cn1 (single isomer, unassigned) [Example 311, (*R)-6-[[5-[5-(2-amino-3,3,3-trifluoro-2-methyl-propoxy)-2-methyl-4-pyridyl]pyrazolo[1,5-a]pyridin-2-yl]amino]-2,4-dimethyl-pyridazin-3-one]
18 | 0.0454 | Cc1cc(Nc2cc3cc(-c4cc(OCC#N)ncc4OC[C@H]4OCC[C@@H]4O)ccn3n2)nc(C)n1 [Example 500, 2-[[4-[2-[(2,6-dimethylpyrimidin-4-yl)amino]pyrazolo[1,5-a]pyridin-5-yl]-5-[[(2R,3S)-3-hydroxytetrahydrofuran-2-yl]methoxy]-2-pyridyl]oxy]acetonitrile]
19 | 0.00231 | Cc1cc(-c2ccn3nc(Nc4cc(C)nc(C)n4)cc3c2)c(OCC(C)(C)C#N)cn1 [Example 262, 3-[[4-[2-[(2,6-dimethylpyrimidin-4-yl)amino]pyrazolo[1,5-a]pyridin-5-yl]-6-methyl-3-pyridyl]oxy]-2,2-dimethyl-propanenitrile]
20 | 0.00411 | CC(C)(C#N)COc1cnc(OC(F)F)cc1-c1ccn2nc(Nc3ccc(C(C)(C)O)nn3)cc2c1 [Example 712, 3-[[6-(difluoromethoxy)-4-[2-[[6-(1-hydroxy-1-methyl-ethyl)pyridazin-3-yl]amino]pyrazolo[1,5-a]pyridin-5-yl]-3-pyridyl]oxy]-2,2-dimethyl-propanenitrile]
21 | 0.0322 | Cc1cc(-c2ccn3nc(Nc4cc(C)nc(C)n4)cc3c2)c(O[C@@H]2CCS(=O)(=O)N(C)C2)cn1 (single isomer, unassigned) [Example 354, (*R)—N-(2,6-dimethylpyrimidin-4-yl)-5-[2-methyl-5-(2-methyl-1,1-dioxo-thiazinan-4-yl)oxy-4-pyridyl]pyrazolo[1,5-a]pyridin-2-amine]
22 | 0.00132 | Cc1cc(-c2ccn3nc(Nc4ccc5cc[nH]c5n4)cc3c2)c(OCC(C)(C)C#N)cn1 [Example 307, 2,2-dimethyl-3-[[6-methyl-4-[2-(1H-pyrrolo[2,3-b]pyridin-6-ylamino)pyrazolo[1,5-a]pyridin-5-yl]-3-pyridyl]oxy]propanenitrile]
23 | 0.0443 | Cc1cc(Nc2cc3cc(-c4cc(OCCO)ncc4OCC(C)(C)C#N)ccn3n2)nc(C)n1 [Example 678, 3-[[4-[2-[(2,6-dimethylpyrimidin-4-yl)amino]pyrazolo[1,5-a]pyridin-5-yl]-6-(2-hydroxyethoxy)-3-pyridyl]oxy]-2,2-dimethyl-propanenitrile]
24 | 0.0555 | CC(C)(C#N)COc1cnc(Cl)cc1-c1ccn2nc(NC(=O)C3CC3)cc2c1 [Example 666, N-[5-[2-chloro-5-(2-cyano-2-methyl-propoxy)-4-pyridyl]pyrazolo[1,5-a]pyridin-2-yl]cyclopropanecarboxamide]
25 | 0.0535 | Cc1cc(-c2ccn3nc(Nc4cc(C)nc(C)n4)cc3c2)c(OC[C@@]2(C)CCOC2)cn1 (single isomer, unassigned) [Example 536, (*S)—N-(2,6-dimethylpyrimidin-4-yl)-5-[2-methyl-5-[(3-methyltetrahydrofuran-3-yl)methoxy]-4-pyridyl]pyrazolo[1,5-a]pyridin-2-amine]
26 | 0.00686 | Cc1cc(-c2ccn3nc(Nc4cc(C)nc(C)n4)cc3c2)c(OC[C@@H](O)C2CC2)cn1 [Example 559, (1S)-1-cyclopropyl-2-[[4-[2-[(2,6-dimethylpyrimidin-4-yl)amino]pyrazolo[1,5-a]pyridin-5-yl]-6-methyl-3-pyridyl]oxy]ethanol]
